Experimental data: patent publication US8952024B2, “Herbicidal pyrimidone derivatives” (E I du Pont de Nemours and Company, priority 2009, dated 2015)

What was measured:
Assay type in all cases: in vivo
[1] = test system: ducksalad (Heteranthera limosa); assay: Test B flooded paddy test; conditions: for Plant response rating, Flood, Ducksalad: 250 g ai/ha, flooded paddy test, visual rating on 0 to 100 scale (0 no effect, 100 complete control) after 13 to 15 days; for Plant response rating, Ducksalad: Flood (flooded paddy test), 13 to 15 days
In short: (§1)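 Greenhouse-held for 13 to 15 days, treated pots were compared visually with controls and scored 0–100 (0, no effect). Treatment had been made into paddy water kept at 3 cm above the soil, with plants at the 2-leaf stage.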

[2] = test system: umbrella sedge (Cyperus difformis); assay: Test B flooded paddy test; conditions: for Plant response rating, Flood, Sedge, Umbrella: 250 g ai/ha, flooded paddy test, visual rating on 0 to 100 scale (0 no effect, 100 complete control) after 13 to 15 days; for Plant response rating, Sedge, Umbrella: Flood (flooded paddy test), 13 to 15 days
In short: as §1

[3] = test system: rice (Oryza sativa); assay: Test B flooded paddy test; conditions: for Plant response rating, Flood, Rice: 250 g ai/ha, flooded paddy test, visual rating on 0 to 100 scale (0 no effect, 100 complete control) after 13 to 15 days; for Plant response rating, Rice: Flood (flooded paddy test), 13 to 15 days
In short: as §1

[4] = test system: barnyardgrass (Echinochloa crus-galli); assay: Test B flooded paddy test; conditions: for Plant response rating, Flood, Barnyardgrass: 250 g ai/ha, flooded paddy test, visual rating on 0 to 100 scale (0 no effect, 100 complete control) after 13 to 15 days; for Plant response rating, Barnyardgrass: Flood (flooded paddy test), 13 to 15 days
In short: as §1

[5] = test system: windgrass (Apera spica-venti); assay: Test B postemergence plant response
In short: (§2)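 Visual ratings from 0 (no effect) to 100 (complete control), made against controls 13–15 days after treatment, kept in a greenhouse. Compounds were applied postemergence to potted plants at the 1- to 4-leaf stage (2–18 cm).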

[6] = test system: canarygrass (Phalaris minor); assay: Test B postemergence plant response
In short: as §2

[7] = test system: chickweed (Stellaria media); assay: Test B postemergence plant response
In short: as §2

[8] = test system: winter barley (Hordeum vulgare); assay: Test B postemergence plant response
In short: as §2

[9] = test system: sunflower (common oilseed sunflower, Helianthus annuus); assay: Test B pre-/postemergence plant response; conditions: Preemergence; for Sunflower plant response rating: 250 g ai/ha, 0 to 100 scale
In short: (§3)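 Pre-em in loam/sand; post-em at 1–4 leaf (2–18 cm) in peat mix. Solvent + surfactant formulation. Greenhouse 13–15 d; visual % control vs untreated, 0–100.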

[10] = test system: Italian ryegrass (Lolium multiflorum); assay: Test B pre-/postemergence plant response; conditions: for Ryegrass, Italian plant response rating: 0 to 100 scale
In short: as §3

[11] = test system: galium (catchweed bedstraw, Galium aparine); assay: Test B pre-/postemergence plant response; conditions: Preemergence; for Galium plant response rating: 250 g ai/ha, 0 to 100 scale
In short: as §3

[12] = test system: nightshade (eastern black nightshade, Solanum ptycanthum); assay: Test B pre-/postemergence plant response; conditions: Preemergence; for Nightshade plant response rating: 250 g ai/ha, 0 to 100 scale
In short: as §3

[13] = test system: giant foxtail (Setaria faberii); assay: Test B pre-/postemergence plant response; conditions: for Foxtail, Giant plant response rating: 0 to 100 scale
In short: as §3

[14] = test system: ragweed (common ragweed, Ambrosia elatior); assay: Test B pre-/postemergence plant response; conditions: for Ragweed plant response rating: 0 to 100 scale
In short: as §3

[15] = 62 g ai/ha, scale of 0 to 100 where 0 is no effect and 100 is complete control
[16] = 31 g ai/ha, postemergence, scale 0 to 100, 0 is no effect, 100 is complete control
[17] = 62 g ai/ha, postemergence, 0 is no effect, 100 is complete control, 13 to 15 days
[18] = Postemergence, 125 g ai/ha, visual rating after 13 to 15 days, scale 0 (no effect) to 100 (complete control)
[19] = Postemergence, 250 g ai/ha, scale 0 to 100 (0 no effect, 100 complete control)
[20] = 31 g ai/ha, scale 0 to 100 (0 no effect, 100 complete control)
[21] = 62 g ai/ha, scale 0 to 100, 0 no effect, 100 complete control
[22] = 125 g ai/ha, scale 0 to 100, 0 no effect, 100 complete control
[23] = Preemergence, 31 g ai/ha, scale 0 to 100 (0 no effect, 100 complete control)
[24] = Preemergence, 62 g ai/ha, scale 0 to 100, 0 no effect, 100 complete control
[25] = Preemergence, 125 g ai/ha, scale 0 to 100, 0 no effect, 100 complete control
[26] = 125 g ai/ha, scale 0 to 100, 0 is no effect, 100 is complete control
[27] = Flood, 31 g ai/ha, scale 0 to 100 (0 no effect, 100 complete control)
[28] = Postemergence, 31 g ai/ha, 0 to 100 scale (0 no effect, 100 complete control)
[29] = Postemergence, 250 g ai/ha, scale 0 to 100 (0 no effect, 100 complete control), 13 to 15 days
[30] = Postemergence, 62 g ai/ha, scale 0 to 100 (0 no effect, 100 complete control)
[31] = Postemergence, 125 g ai/ha, scale 0 to 100 (0 no effect, 100 complete control)

CCCCn1c(CCC)ncc(C(=O)C2=C(O)CCCC2=O)c1=O [Compound 75]
95: Plant response rating, Galium [11, 22] | Plant response rating, Nightshade [12, 20] | Plant response rating, Foxtail, Giant [13, 19] | Plant response rating, Ragweed [14, 19] | Plant response rating, Ragweed [14, 25] | Ragweed plant response rating ([14]; Preemergence, 250 g ai/ha)
90: Plant response rating, Windgrass [5, 19] | Chickweed plant response rating (0 to 100 scale) [7, 17] | Plant response rating, Ragweed [14, 18]
98: Plant response rating, Chickweed [7, 18] | Galium plant response rating [11] | Plant response rating, Nightshade [12, 21] | Plant response rating, Nightshade [12, 22]
0: Plant response rating, Sedge, Umbrella [2, 15] | Plant response rating, Rice [3, 15] | Plant response rating, Canarygrass [6, 16] | Canarygrass plant response rating (0 to 100 scale) [6, 17] | Plant response rating, Canarygrass [6, 18] | Plant response rating, Canarygrass [6, 19] | Plant response rating, Barley [8, 16] | Barley plant response rating (0 to 100 scale) [8, 17] | Plant response rating, Barley [8, 18] | Plant response rating, Barley [8, 19] | Plant response rating, Ryegrass, Italian [10, 16] | Plant response rating, Ryegrass, Italian [10, 23] | Plant response rating, Ryegrass, Italian [10, 24] | Plant response rating, Ryegrass, Italian [10, 25] | Ryegrass, Italian plant response rating ([10]; Preemergence, 250 g ai/ha) | Plant response rating, Foxtail, Giant [13, 23]
55: Plant response rating, Sunflower [9, 21]
20: Plant response rating, Barnyardgrass [4, 15]
100: Plant response rating, Chickweed [7, 19] | Nightshade plant response rating [12]
40: Plant response rating, Ryegrass, Italian [10, 18]
85: Plant response rating, Chickweed [7, 16] | Sunflower plant response rating [9] | Plant response rating, Galium [11, 21] | Plant response rating, Foxtail, Giant [13, 18] | Ragweed plant response rating (0 to 100 scale) [14, 17]
80: Foxtail, Giant plant response rating (0 to 100 scale) [13, 17] | Plant response rating, Foxtail, Giant [13, 25] | Foxtail, Giant plant response rating ([13]; Preemergence, 250 g ai/ha) | Plant response rating, Ragweed [14, 16]
30: Plant response rating, Ducksalad [1, 15] | Plant response rating, Windgrass [5, 16] | Plant response rating, Sunflower [9, 20]
45: Plant response rating, Flood, Rice [3]
25: Plant response rating, Foxtail, Giant [13, 24]
50: Plant response rating, Flood, Ducksalad [1] | Plant response rating, Flood, Sedge, Umbrella [2] | Windgrass plant response rating (0 to 100 scale) [5, 17]
75: Plant response rating, Sunflower [9, 22] | Plant response rating, Foxtail, Giant [13, 16] | Plant response rating, Ragweed [14, 23] | Plant response rating, Ragweed [14, 24]
15: Ryegrass, Italian plant response rating (0 to 100 scale) [10, 17]
60: Plant response rating, Flood, Barnyardgrass [4] | Plant response rating, Ryegrass, Italian [10, 19] | Plant response rating, Galium [11, 20]
70: Plant response rating, Windgrass [5, 18]

CCc1cccc(-n2c(-c3ccccc3)ncc(C(=O)C3=C(O)CCCC3=O)c2=O)c1 [Compound 220]
100: Plant response rating, Flood, Ducksalad [1] | Plant response rating, Chickweed [7, 29] | Galium plant response rating [11] | Nightshade plant response rating [12]
70: Plant response rating, Flood, Rice [3] | Plant response rating, Sunflower [9, 22]
30: Ducksalad plant response rating [1, 27] | Plant response rating, Barnyardgrass [4, 26] | Plant response rating, Canarygrass [6, 29] | Plant response rating, Foxtail, Giant [13, 28]
75: Foxtail, Giant plant response rating ([13]; Preemergence, 250 g ai/ha)
85: Plant response rating, Ducksalad [1, 26] | Plant response rating, Flood, Sedge, Umbrella [2]
90: Sunflower plant response rating [9] | Plant response rating, Galium [11, 22] | Plant response rating, Nightshade [12, 21] | Plant response rating, Ragweed [14, 28]
98: Plant response rating, Chickweed [7, 31] | Plant response rating, Nightshade [12, 22] | Plant response rating, Ragweed [14, 29]
45: Plant response rating, Sunflower [9, 21]
40: Plant response rating, Ducksalad [1, 15] | Plant response rating, Flood, Barnyardgrass [4] | Plant response rating, Windgrass [5, 30]
65: Plant response rating, Nightshade [12, 20]
0: Plant response rating, Sedge, Umbrella [2, 15] | Sedge, Umbrella plant response rating [2, 27] | Rice plant response rating [3, 27] | Plant response rating, Barnyardgrass [4, 15] | Barnyardgrass plant response rating [4, 27] | Plant response rating, Sunflower [9, 20] | Plant response rating, Ryegrass, Italian [10, 23] | Plant response rating, Ryegrass, Italian [10, 24] | Plant response rating, Ryegrass, Italian [10, 25] | Ryegrass, Italian plant response rating ([10]; Preemergence, 250 g ai/ha) | Plant response rating, Galium [11, 20] | Plant response rating, Foxtail, Giant [13, 23] | Plant response rating, Foxtail, Giant [13, 24] | Plant response rating, Foxtail, Giant [13, 25]
80: Plant response rating, Ragweed [14, 25]
55: Plant response rating, Foxtail, Giant [13, 31]
5: Plant response rating, Windgrass [5, 28] | Plant response rating, Ryegrass, Italian [10, 28] | Plant response rating, Ryegrass, Italian [10, 30]
10: Plant response rating, Canarygrass [6, 28] | Plant response rating, Canarygrass [6, 31] | Plant response rating, Canarygrass [6, 30] | Plant response rating, Barley [8, 28] | Plant response rating, Barley [8, 31] | Plant response rating, Barley [8, 30]
50: Plant response rating, Rice [3, 26] | Plant response rating, Galium [11, 21] | Plant response rating, Foxtail, Giant [13, 30]
15: Plant response rating, Rice [3, 15] | Plant response rating, Barley [8, 29] | Plant response rating, Ragweed [14, 23]
95: Plant response rating, Chickweed [7, 28] | Plant response rating, Chickweed [7, 30] | Plant response rating, Foxtail, Giant [13, 29] | Plant response rating, Ragweed [14, 30] | Ragweed plant response rating ([14]; Preemergence, 250 g ai/ha)
60: Plant response rating, Windgrass [5, 29] | Plant response rating, Ryegrass, Italian [10, 29] | Plant response rating, Ragweed [14, 24]
20: Plant response rating, Sedge, Umbrella [2, 26]

CCCc1ncc(C(=O)C2=C(O)CCCC2=O)c(=O)n1-c1ccccc1 [Compound 217]
80: Plant response rating, Ragweed [14, 28] | Plant response rating, Ragweed [14, 30]
90: Galium plant response rating [11] | Plant response rating, Foxtail, Giant [13, 29] | Plant response rating, Ragweed [14, 25]
85: Plant response rating, Windgrass [5, 29] | Plant response rating, Sunflower [9, 22] | Sunflower plant response rating [9] | Plant response rating, Foxtail, Giant [13, 31] | Foxtail, Giant plant response rating ([13]; Preemergence, 250 g ai/ha)
30: Plant response rating, Ryegrass, Italian [10, 30]
5: Plant response rating, Barley [8, 30] | Plant response rating, Ryegrass, Italian [10, 25] | Plant response rating, Foxtail, Giant [13, 23]
40: Plant response rating, Flood, Ducksalad [1] | Plant response rating, Flood, Sedge, Umbrella [2] | Plant response rating, Sedge, Umbrella [2, 15] | Plant response rating, Ryegrass, Italian [10, 29] | Plant response rating, Foxtail, Giant [13, 24]
75: Plant response rating, Chickweed [7, 28] | Plant response rating, Sunflower [9, 21] | Plant response rating, Foxtail, Giant [13, 30] | Plant response rating, Foxtail, Giant [13, 25]
70: Plant response rating, Sunflower [9, 20] | Plant response rating, Galium [11, 22] | Plant response rating, Foxtail, Giant [13, 28]
100: Plant response rating, Chickweed [7, 31] | Plant response rating, Chickweed [7, 29] | Plant response rating, Nightshade [12, 21] | Plant response rating, Nightshade [12, 22] | Nightshade plant response rating [12]
0: Plant response rating, Ducksalad [1, 15] | Plant response rating, Rice [3, 15] | Plant response rating, Flood, Barnyardgrass [4] | Plant response rating, Barnyardgrass [4, 15] | Plant response rating, Canarygrass [6, 28] | Plant response rating, Barley [8, 28] | Plant response rating, Ryegrass, Italian [10, 28] | Plant response rating, Ryegrass, Italian [10, 23] | Plant response rating, Ryegrass, Italian [10, 24] | Plant response rating, Galium [11, 20]
10: Plant response rating, Barley [8, 31] | Plant response rating, Barley [8, 29] | Ryegrass, Italian plant response rating ([10]; Preemergence, 250 g ai/ha) | Plant response rating, Galium [11, 21]
20: Plant response rating, Flood, Rice [3] | Plant response rating, Canarygrass [6, 31] | Plant response rating, Canarygrass [6, 29] | Plant response rating, Canarygrass [6, 30]
50: Plant response rating, Windgrass [5, 28] | Plant response rating, Windgrass [5, 30]
60: Plant response rating, Ragweed [14, 23] | Plant response rating, Ragweed [14, 24]
95: Plant response rating, Chickweed [7, 30] | Plant response rating, Nightshade [12, 20] | Ragweed plant response rating ([14]; Preemergence, 250 g ai/ha)
98: Plant response rating, Ragweed [14, 29]
